Assay results: patent publication US20100303758A1, “Novel Glucocorticoid Receptor Agonists” (priority 2009, published 2010)

Tests used:
Assay type in all cases: cell-based
[1] = system: tumour necrosis factor-α (TNF-α) release from lipopolysaccharide (LPS) stimulated isolated human peripheral mononuclear cells (PBMC); test: Inhibition of TNF-α release from LPS stimulated isolated human PBMC; conditions: LPS stimulated human PBMC; 1 h pre-incubation, 18 hours after LPS; TNF-α by ELISA
How it was run: (§1)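 Human PBMC from EDTA blood of healthy donors, at 1×10^6 lymphocytes/ml in HBSS/HEPES/BSA buffer, were preincubated with compound (1% DMSO final) for 1 h at 37° C, then stimulated with LPS (added as 100 ng/ml solution) for 18 hours. Supernatant TNF-α was measured by ELISA, and IC50 was derived from dose-response curves.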

human GR = molecular target: T1, human GR (Homo sapiens, UniProt P04150); test: GR agonist potency, MMTV-luciferase reporter in SW1353 cells; conditions: human chondrosarcoma cell-line SW1353 stably transfected with MMTV-luciferase reporter; approx. 18 hours; data as percentage of 1 μM dexamethasone positive control
T1 construct: SW1353 naturally expresses human GR; endogenous in cells; host or cells: human chondrosarcoma cell-line SW1353 stably transfected with an MMTV-luciferase reporter construct
T1 sequence (P04150 1-777): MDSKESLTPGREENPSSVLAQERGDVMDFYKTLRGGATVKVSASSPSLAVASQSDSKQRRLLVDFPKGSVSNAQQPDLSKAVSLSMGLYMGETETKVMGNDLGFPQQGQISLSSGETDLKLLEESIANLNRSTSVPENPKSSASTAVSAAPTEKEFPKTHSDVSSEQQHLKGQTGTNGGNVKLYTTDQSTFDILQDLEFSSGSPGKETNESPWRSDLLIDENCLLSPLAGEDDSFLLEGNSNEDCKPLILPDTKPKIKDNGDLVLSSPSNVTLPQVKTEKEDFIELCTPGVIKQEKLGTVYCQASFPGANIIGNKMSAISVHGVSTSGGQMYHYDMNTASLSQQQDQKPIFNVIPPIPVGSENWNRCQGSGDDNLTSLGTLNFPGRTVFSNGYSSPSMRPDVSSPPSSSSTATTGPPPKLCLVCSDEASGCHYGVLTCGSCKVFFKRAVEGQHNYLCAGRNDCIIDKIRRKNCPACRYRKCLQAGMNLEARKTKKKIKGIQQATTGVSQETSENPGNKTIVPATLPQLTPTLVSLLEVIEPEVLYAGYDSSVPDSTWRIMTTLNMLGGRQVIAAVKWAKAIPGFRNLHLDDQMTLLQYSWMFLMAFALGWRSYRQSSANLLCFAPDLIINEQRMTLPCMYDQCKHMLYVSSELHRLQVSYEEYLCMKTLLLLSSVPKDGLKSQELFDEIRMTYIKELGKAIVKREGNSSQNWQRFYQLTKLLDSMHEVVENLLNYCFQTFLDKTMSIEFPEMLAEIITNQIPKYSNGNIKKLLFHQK
How it was run: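 SW1353 chondrosarcoma cells stably carrying MMTV-luciferase, endogenous GR, exposed to compound ~18 h at 37 °C. Luminescence expressed as percent of 1 μM dexamethasone response; EC50 estimated from dose-response curves.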

[2] = Inhibition of TNF-α release from LPS stimulated isolated human PBMC; conditions: Homo sapiens, PBMC, read-out: IC50 (nM) for inhibition of TNF-α release
How it was run: as §1

Compound | IC50 [1] | EC50 (human GR) | IC50 [2]
CC12C=CC(=O)C=C1CCC1C3CCC(OC(=O)c4ccc(Cc5ccccc5)cc4)(C(=O)OCC#N)C3(C)CC(O)C12F (centres unmarked) [Example 9] | 0.21 nM | – | –
CC12C=CC(=O)C=C1CCC1C3CCC(OC(=O)c4ccc(Sc5ccc(O)cc5)cc4)(C(=O)OCC#N)C3(C)CC(O)C12F (stereo not drawn) [Example 18, cyanomethyl (11beta,17alpha)-9-fluoro-11-hydroxy-17-({4-[(4-hydroxyphenyl)thio]benzoyl}oxy)-3-oxoandrosta-1,4-d iene-17-carboxylate] | 0.138 nM | 34.9 nM | –
CC12C=CC(=O)C=C1CCC1C3CCC(OC(=O)c4ccc(Oc5ccc(Cl)c(O)c5)cc4)(C(=O)OCC#N)C3(C)CC(O)C12F (stereo not drawn) [Example 34, cyanomethyl (11beta,17alpha)-17-{[4-(4-chloro-3-hydroxyphenoxy)-benzoyl]oxy}-9-fluoro-11-hydroxy-oxoandrosta-1,4-diene-17-carboxylate] | 0.278 nM | 100 nM | –
CSc1ccc(Oc2ccc(C(=O)O[C@]3(C(=O)OCC#N)[C@H](C)C[C@H]4[C@@H]5C[C@H](F)C6=CC(=O)C=C[C@]6(C)[C@@]5(F)[C@@H](O)C[C@@]43C)cc2)cc1 [Example 48, Cyanomethyl (6alpha,11beta,16alpha, 17alpha)-6,9-difluoro-11-hydroxy-16-methyl-17-({4-[4-(methylthio)phenoxy]benzoyl}oxy)-3-oxoandrosta-1,4-diene-17-carboxylate] | – | 14.2 nM | 0.09 nM
CSc1cccc(Sc2ccc(C(=O)O[C@]3(C(=O)OCC#N)[C@H](C)C[C@H]4[C@@H]5C[C@H](F)C6=CC(=O)C=C[C@]6(C)[C@@]5(F)[C@@H](O)C[C@@]43C)cc2)c1 [Example 49, Cyanomethyl (6alpha,11beta,16alpha, 17alpha)-6,9-difluoro-11-hydroxy-16-methyl-17-[(4-{[3-(methylthio)phenyl]thio}benzoyl)oxy]-3-oxoandrosta-1,4-diene-17-carboxylate] | – | 90.8 nM | 0.738 nM
CSc1ccc(Sc2ccc(C(=O)O[C@]3(C(=O)OCF)[C@H](C)C[C@H]4[C@@H]5C[C@H](F)C6=CC(=O)C=C[C@]6(C)[C@@]5(F)[C@@H](O)C[C@@]43C)cc2)cc1 [Example 50, Fluoromethyl (6alpha,11beta,16alpha, 17alpha)-6,9-difluoro-11-hydroxy-16-methyl-17-[(4-{[4-(methylthio)phenyl]thio}benzoyl)oxy]-3-oxoandrosta-1,4-diene-17-carboxylate] | – | 11.5 nM | 0.052 nM
CSc1cccc(Oc2ccc(C(=O)O[C@]3(C(=O)OCF)[C@H](C)C[C@H]4[C@@H]5C[C@H](F)C6=CC(=O)C=C[C@]6(C)[C@@]5(F)[C@@H](O)C[C@@]43C)cc2)c1 [Example 51, Fluoromethyl (6alpha,11beta,16alpha, 17alpha)-6,9-difluoro-11-hydroxy-16-methyl-17-({4-[3-(methylthio)phenoxy]benzoyl}oxy)-3-oxoandrosta-1,4-diene-17-carboxylate] | – | 8.7 nM | 0.057 nM
CSc1ccc(Oc2ccc(C(=O)OC3(C(=O)OCF)C(C)CC4C5CC(F)C6=CC(=O)C=CC6(C)C5(F)C(O)CC43C)cc2)cc1 (stereo not drawn) [Example 52, Fluoromethyl (6alpha,11beta,16alpha, 17alpha)-6,9-difluoro-11-hydroxy-16-methyl-17-({4-[4-(methylthio)phenoxy]benzoyl}oxy)-3-oxoandrosta-1,4-diene-17-carboxylate] | 0.033 nM | 6.05 nM | –
CSc1cccc(Sc2ccc(C(=O)O[C@]3(C(=O)OCF)[C@H](C)C[C@H]4[C@@H]5C[C@H](F)C6=CC(=O)C=C[C@]6(C)[C@@]5(F)[C@@H](O)C[C@@]43C)cc2)c1 [Example 53] | – | 11.8 nM | 0.086 nM
